Assay results: a melting point compilation (Tetko et al.; mined from patent text by program, amines drawn as free bases though some values may be those of a salt)

Question: With `CC1COc2c(ccc(F)c2F)N1` (configuration not stated) as the molecule, how does the melting point read?
Answer: 51 °C

Question: With `NC(=O)c1ccc(NC(=O)C2CCCN(Cc3ccccc3)C2)cc1` (configuration not stated) as the molecule, how does the melting point read?
Answer: 211 to 212 °C

Question: With `CC1(C)CC(=NN)c2ccccc21` as the molecule, how does the melting point read?
Answer: 194 to 197 °C

Question: Which melting point does the source give for `O=[N+]([O-])c1c(C=NO)cccc1OCc1ccccc1` here?
Answer: 141 to 142 °C

Question: For `COC(=O)Nc1cn2c(S(=O)c3ccccc3)cccc2n1` (configuration not stated), which melting point is on record?
Answer: 249 to 251 °C

Question: Which melting point does the source give for `O=C(O)/C=C/c1oc(-c2ccccc2)nc1-c1ccc(Cl)cc1` here?
Answer: 255 to 257 °C

Question: Which melting point does the source give for `O=C1Nc2ccc(-c3cccc(Cl)c3)cc2C1=O` here?
Answer: 159 to 161 °C

Question: With `CCn1ncc2c3noc(-c4ccc(C)cc4)c3cnc21` as the molecule, how does the melting point read?
Answer: 221 to 222 °C

Question: For `COC(=O)c1cc(OCc2ccc3ccccc3n2)nn1C(C)C`, which melting point is on record?
Answer: 64 to 65 °C

Question: With `COC(=O)c1ccc(-c2nc(-c3ccc(C(F)(F)F)cc3)co2)cc1` as the molecule, how does the melting point read?
Answer: 182 to 183 °C

Question: For `Cc1ccc(CN2CCN3C(=O)OC(c4ccccc4)(c4ccccc4)C3C2)cc1` (configuration not stated), which melting point is on record?
Answer: 154 to 155 °C

Question: Which melting point does the source give for `C[C@H]1C[C@@](O)(c2cccc(S(=O)(=O)c3ccc4c(c3)CCC(=O)N4)c2)CCO1` here?
Answer: 178 to 180 °C

Question: Which melting point does the source give for `CC(C)c1cc2c(c(O)c1O)C1(C(=O)O)CCCC(C)(C)C1CC2` (configuration not stated) here?
Answer: 193 to 199 °C

Question: For `C=CCOc1ccccc1OCC(O)CNC1CCc2ccccc2C1` (configuration not stated), which melting point is on record?
Answer: 98 to 100 °C

Question: With `O=C1CCc2c(Cl)sc(-c3ccccc3F)c21` as the molecule, how does the melting point read?
Answer: 133 to 135 °C

Question: With `COc1cccc2c(Oc3ccccc3)cccc12` as the molecule, how does the melting point read?
Answer: 65 to 66 °C

Question: Which melting point does the source give for `COC(=O)C1=Cc2cc(Br)ccc2CCC1` here?
Answer: 83 to 84 °C

Question: With `CS(=O)(=O)c1ccc(-c2c(-c3ccccc3F)[nH]c3ccc(Cl)cc23)cc1` as the molecule, how does the melting point read?
Answer: 246 to 248 °C

Question: For `COC(=O)C(C)(C)Nc1cc(Cl)ccc1[N+](=O)[O-]`, which melting point is on record?
Answer: 87 to 89 °C

Question: Which melting point does the source give for `O=C(O)CNC(=O)Cc1ccccc1S` here?
Answer: 91 to 93 °C

Question: For `COc1ccc(CNC(=O)c2c[nH]c3ccc(N4CCCC4)nc3c2=O)cc1`, which melting point is on record?
Answer: 270 to 272 °C

Question: For `NC(=O)CNC(=O)c1cc(-c2cccc3cc(Cc4cc(F)cc(Cl)c4)sc23)ccn1`, which melting point is on record?
Answer: 157 to 158 °C

Question: For `CCn1cc(C(=O)O)c(=O)c2cc(F)c(-c3ccncc3)nc21`, which melting point is on record?
Answer: 286 to 288 °C

Question: Which melting point does the source give for `COc1cc2ncnc(C3C(=O)N(C)c4ccccc43)c2cc1OC` (configuration not stated) here?
Answer: 233 to 235 °C

Question: For `CC(C)c1ccc(CCC(O)CC2CCCCC2)cc1NC(=O)CC1c2ccccc2Oc2ccccc21` (configuration not stated), which melting point is on record?
Answer: 144 to 145 °C

Question: For `COC(=O)c1ccc(Br)cc1Cl`, which melting point is on record?
Answer: 28 to 30 °C

Question: For `CCOC(=O)c1ccc(NC(=O)c2ccc3c(c2)OCCO3)cc1`, which melting point is on record?
Answer: 134 to 136 °C

Question: With `CN(C)CCNC(=O)c1ccc(-c2nnc(CSCCOc3ccccc3)o2)cc1` as the molecule, how does the melting point read?
Answer: 94 to 100 °C

Question: For `CC(C)Nc1cccnc1N1CCN(C(=O)c2ccc(C(=O)NCCN3CCOCC3)cc2)CC1`, which melting point is on record?
Answer: 114 to 116 °C

Question: Which melting point does the source give for `Cc1cc(N2CCN(c3ccccc3)CC2)c(C#N)c(=O)[nH]1` here?
Answer: > 270 °C

Question: With `CN(C)Cc1ccc(C=CC(=O)O)s1` as the molecule, how does the melting point read?
Answer: 224 to 225 °C

Question: For `Cc1nc(-c2cn(CC3CC3)nn2)sc1C(=O)NCc1cccnc1`, which melting point is on record?
Answer: 140 to 141 °C

Question: For `C=CC(C)(C)C(=O)COc1ccc(-c2ccccc2)cc1`, which melting point is on record?
Answer: 42 to 44 °C

Question: Which melting point does the source give for `CCCCNC(=O)N(c1ccccc1)c1ccccc1` here?
Answer: 92 °C

Question: Which melting point does the source give for `O=C(O)CCSC(SCCC(=O)O)c1cccc(OCc2ccc3ccccc3n2)c1` here?
Answer: 150 to 152 °C

Question: Which melting point does the source give for `CCNC(CC)c1ccc(Cl)c2nc3n(c12)CCCN3c1ccc(Cl)cc1Cl` (configuration not stated) here?
Answer: 124 to 127 °C

Question: Which melting point does the source give for `CC(C)CCSc1cc(C(=O)O)cc(N)c1-c1ccccc1` here?
Answer: 124 to 126 °C

Question: With `N#CC1(c2ccc(F)cc2)C=CC(N2CCN(c3cccnn3)CC2)CC1` (configuration not stated) as the molecule, how does the melting point read?
Answer: 189 °C

Question: For `CN1C2CCC1CC(O)(c1ccccc1)C2` (configuration not stated), which melting point is on record?
Answer: 157 to 159 °C

Question: Which melting point does the source give for `COc1cc(CC(N)=O)c(CCc2ccc(O)c(OCc3ccccc3)c2)c(OC)c1OC` here?
Answer: 139 to 141 °C

Question: Which melting point does the source give for `CC(C)(C)OC(=O)N1C(=O)CCC1=O` here?
Answer: 76 to 78 °C

Question: With `CC(C)(C)OC(=O)NCc1cccc2c1CN(C1CCC(=O)NC1=O)C2=O` (configuration not stated) as the molecule, how does the melting point read?
Answer: 239 to 241 °C

Question: Which melting point does the source give for `CN(Cc1cccc2c1CN(C1CCC(=O)NC1=O)C2=O)C(=O)NC(C)(C)C` (configuration not stated) here?
Answer: 216 to 218 °C

Question: Which melting point does the source give for `O=C(c1ccc(F)cc1)c1cccnc1C(=O)O` here?
Answer: 152 to 153 °C

Question: Which melting point does the source give for `COc1ccc(-c2c(Cl)c(CN3CCCC3)nc3sc4c(c23)CCN(Cc2ccccc2)C4)cc1OC` here?
Answer: 157 to 158 °C

Question: Which melting point does the source give for `N#Cc1nn(-c2c(Cl)cc(C(F)(F)F)cc2Cl)cc1C1CC(=O)C1` here?
Answer: 127 °C

Question: For `Cc1c(C(=O)O)cccc1S(=O)(=O)CCO`, which melting point is on record?
Answer: 160 to 165 °C

Question: Which melting point does the source give for `COC(=O)C1CC(C#N)(c2ccc(Cl)cc2)CCC1=O` (configuration not stated) here?
Answer: 141 to 144 °C

Question: For `COc1cc2cc(C(=O)O)sc(=O)c2cc1OC`, which melting point is on record?
Answer: 306 to 307 °C

Question: Which melting point does the source give for `COc1ccc(N2C3CCC2CC(=O)C3)cc1` here?
Answer: 133 to 134 °C

Question: For `Cc1cc(CCCCCCCOc2ccc(C(=O)N(C)C)cc2)on1`, which melting point is on record?
Answer: 58 to 59 °C

Question: Which melting point does the source give for `COC(=O)c1ccc(NCC=Cc2ccccc2)cn1` here?
Answer: 131 to 133 °C
